Reference: the NIST ThermoML archive (doi:10.1007/s10765-013-1432-0)
± gives the expanded uncertainty stated by the source.

Test: mn = molality of the nth substance listed, in mol/kg
Settings: 101 kPa, Liquid, Linear variable-path acoustic interferometer, m1 = 0.512

Which speed of sound (298.15 K) does the source give for O=[N+]([O-])[O-].[K+] [potassium nitrate] + O here?
The speed of sound was 1517.8 ± 1.8 m/s.

What about the speed of sound (303.15 K) of the same compound?
The speed of sound was 1526.8 ± 1.8 m/s.

What about the speed of sound (308.15 K) of the same compound?
Its speed of sound is 1536.3 ± 1.8 m/s.

What about the speed of sound (313.15 K) of the same compound?
Its speed of sound is 1544.4 ± 1.8 m/s.

What about the speed of sound (318.15 K) of the same compound?
The speed of sound was 1551.1 ± 1.8 m/s.

And the speed of sound (323.15 K)?
The speed of sound was 1556.6 ± 1.9 m/s.

For O=S(=O)([O-])[O-].[K+].[K+] [potassium sulfate] + O, which speed of sound (298.15 K) is on record?
The speed of sound was 1563.6 ± 1.9 m/s.

What about the speed of sound (303.15 K) of the same compound?
Its speed of sound is 1571.6 ± 1.8 m/s.

And the speed of sound (308.15 K)?
The speed of sound was 1580.3 ± 1.8 m/s.

What about the speed of sound (313.15 K) of the same compound?
Its speed of sound is 1587.6 ± 1.8 m/s.

And the speed of sound (318.15 K)?
The speed of sound was 1593.5 ± 1.8 m/s.

What about the speed of sound (323.15 K) of the same compound?
The speed of sound was 1598.3 ± 1.9 m/s.
